Measured values published in patent US9353082B2, “Pharmaceutical compounds” (BIAL—PORTELA & CA, S.A., priority 2008, dated 2016).

Experiments:
[1] = biological target: T1, FAAH (Rattus norvegicus, UniProt P97612); assay: In vitro FAAH activity in rat brain membranes, 3H-AEA substrate, % of control; assay type: biochemical, Wistar rats; settings: rat brain membranes, compound at 100 nM, low value = strong inhibitor
T1 construct: Frozen brains (without cerebellum) from Wistar rats were used; from tissue; host or cells: Wistar rat brain (without cerebellum), washed membrane pellets
T1 sequence (P97612 1-579): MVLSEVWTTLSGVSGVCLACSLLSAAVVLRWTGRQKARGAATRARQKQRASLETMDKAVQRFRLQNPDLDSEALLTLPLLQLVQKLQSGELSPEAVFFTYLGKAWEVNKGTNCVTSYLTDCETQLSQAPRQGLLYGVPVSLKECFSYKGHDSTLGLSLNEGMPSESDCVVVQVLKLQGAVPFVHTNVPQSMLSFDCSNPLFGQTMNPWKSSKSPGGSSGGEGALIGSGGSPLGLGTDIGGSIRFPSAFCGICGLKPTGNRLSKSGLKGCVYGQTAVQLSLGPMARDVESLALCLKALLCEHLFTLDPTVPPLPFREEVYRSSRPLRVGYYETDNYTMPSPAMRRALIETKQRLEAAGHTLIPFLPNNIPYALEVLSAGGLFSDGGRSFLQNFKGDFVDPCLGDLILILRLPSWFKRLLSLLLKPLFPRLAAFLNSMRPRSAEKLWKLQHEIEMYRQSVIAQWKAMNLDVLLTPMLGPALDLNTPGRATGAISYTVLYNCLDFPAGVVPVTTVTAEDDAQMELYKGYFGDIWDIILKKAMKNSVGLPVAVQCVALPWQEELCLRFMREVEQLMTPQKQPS
Summary of the method: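 FAAH activity measured as 3H-ethanolamine released from 2 μM [3H]AEA over 10 min by rat brain membrane preparation, after 15 min 37 °C preincubation with test compound at 10 or 0.1 μM. Charcoal-separated supernatant scintillation-counted; values expressed as % of control minus no-protein blank.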

[2] = biological target: T2, FAAH (Mus musculus, UniProt O08914); assay: In vivo FAAH inhibition after oral dosing, remaining activity in liver homogenate (LVh, peripheral tissue); design: species or system NMRI mice; settings: liver homogenate, 3 mg/kg, 8 h after dosing; low value = strong inhibitor
T2 construct: A fragment of liver, left lung lobe and brain without cerebellum were removed; from tissue; host or cells: male NMRI mice; brain (without cerebellum) and liver homogenates
T2 sequence (O08914 1-579): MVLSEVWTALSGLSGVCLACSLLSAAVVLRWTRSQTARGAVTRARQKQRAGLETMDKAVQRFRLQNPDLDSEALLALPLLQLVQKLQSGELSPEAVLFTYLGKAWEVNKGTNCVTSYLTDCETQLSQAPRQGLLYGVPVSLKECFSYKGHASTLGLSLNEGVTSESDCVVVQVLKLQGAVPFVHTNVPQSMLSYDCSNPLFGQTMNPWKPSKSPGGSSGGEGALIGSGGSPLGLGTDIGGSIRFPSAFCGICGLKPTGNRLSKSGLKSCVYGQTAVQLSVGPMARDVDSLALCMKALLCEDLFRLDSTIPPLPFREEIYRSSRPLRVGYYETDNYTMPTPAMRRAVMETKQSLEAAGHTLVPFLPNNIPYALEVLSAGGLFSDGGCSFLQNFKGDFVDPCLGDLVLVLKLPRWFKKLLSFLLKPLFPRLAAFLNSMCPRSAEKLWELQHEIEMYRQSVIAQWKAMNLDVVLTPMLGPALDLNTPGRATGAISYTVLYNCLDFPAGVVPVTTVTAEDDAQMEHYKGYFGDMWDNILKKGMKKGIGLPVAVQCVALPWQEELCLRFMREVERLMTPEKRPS
Summary of the method: (§1)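 Remaining FAAH activity is given as % of vehicle-treated controls after blank subtraction, measured by radiolabelled AEA hydrolysis (2 μM AEA, 5 nM 3H-AEA, 37 °C) in brain (10 min) or liver (7 min) homogenates. These came from fasted male NMRI mice dosed orally at 30 or 3 mg/kg.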

[3] = biological target: T2, FAAH; assay: In vivo FAAH inhibition after oral dosing, remaining activity in brain homogenate (BRh, central nervous tissue); design: species or system NMRI mice; settings: brain homogenate, 3 mg/kg, 8 h after dosing; low value = strong inhibitor
Summary of the method: as §1

Row | Compound | In Vitro 100 nM (FAAH activity, % of control) [1] | In Vivo LVh 3 mg·kg 8 h (remaining FAAH activity, % of control) [2] | In Vivo BRh 3 mg·kg 8 h (remaining FAAH activity, % of control) [3]
1 | CN(C(=O)n1cnc(-c2cccc(O)c2)c1)C1CCCCC1 [Compound 307, N-cyclohexyl-4-(3-hydroxyphenyl)-N-methyl-1H-imidazole-1-carboxamide] | 56.2 % of control | 10.1 % of control | 137.6 % of control
2 | COc1ccc(-c2cn(C(=O)N(C)C3CCCCC3)cn2)cc1F [Compound 314, N-cyclohexyl-4-(3-fluoro-4-methoxyphenyl)-N-methyl-1H-imidazole-1-carboxamide] | 84.3 % of control | 48 % of control | 84.3 % of control
3 | COc1cc(-c2cn(C(=O)N(C)C3CCCCC3)cn2)ccc1F [Compound 319, N-cyclohexyl-4-(4-fluoro-3-methoxyphenyl)-N-methyl-1H-imidazole-1-carboxamide] | 19.2 % of control | 2 % of control | 5.9 % of control
4 | COc1cccc(-c2cn(C(=O)N3COCC3(C)C)cn2)c1 [Compound 329, (4,4-dimethyloxazolidin-3-yl)(4-(3-methoxyphenyl)-1H-imidazol-1-yl)methanone] | 99.5 % of control | 18.5 % of control | 83.3 % of control
5 | CN(C(=O)n1cnc(-c2ccc(O)c(F)c2)c1)C1CCCCC1 [Compound 330, N-cyclohexyl-4-(3-fluoro-4-hydroxyphenyl)-N-methyl-1H-imidazole-1-carboxamide] | 29.7 % of control | 11.1 % of control | 22.8 % of control
6 | CN(C(=O)n1cnc(-c2ccc(O)c(F)c2)c1)C1CCCC1 [Compound 331, N-cyclopentyl-4-(3-fluoro-4-hydroxyphenyl)-N-methyl-1H-imidazole-1-carboxamide] | 3.6 % of control | 4.9 % of control | 4 % of control
7 | CC1(C)COCN1C(=O)n1cnc(-c2ccc(O)c(F)c2)c1 [Compound 332, (4,4-dimethyloxazolidin-3-yl)(4-(3-fluoro-4-hydroxyphenyl)-1H-imidazol-1-yl)methanone] | 88.5 % of control | 19.5 % of control | 60 % of control
8 | CC1(C)COCN1C(=O)n1cnc(-c2ccc(F)c(O)c2)c1 [Compound 333, (4,4-dimethyloxazolidin-3-yl)(4-(4-fluoro-3-hydroxyphenyl)-1H-imidazol-1-yl)methanone] | 81.9 % of control | 81.5 % of control | 119 % of control
9 | CN(C(=O)n1cnc(-c2cc3ccccc3o2)c1)C1CCCCC1 [Compound 334, 4-(benzofuran-2-yl)-N-cyclohexyl-N-methyl-1H-imidazole-1-carboxamide] | 58.2 % of control | 5.1 % of control | 9.9 % of control
10 | CN(C(=O)n1cnc(-c2cccnc2)c1)C1CCCCC1 [Compound 335, N-cyclohexyl-N-methyl-4-(pyridin-3-yl)-1H-imidazole-1-carboxamide] | 75.4 % of control | 1 % of control | 3.1 % of control
11 | CN(C(=O)n1cnc(-c2ccc(F)c(O)c2)c1)C1CCCCC1 [Compound 343, N-cyclohexyl-4-(4-fluoro-3-hydroxyphenyl)-N-methyl-1H-imidazole-1-carboxamide] | 44.7 % of control | 19.7 % of control | 95.5 % of control
12 | CN(C(=O)n1cnc(-c2ccc(F)c(O)c2)c1)C1CCCC1 [Compound 344, N-cyclopentyl-4-(4-fluoro-3-hydroxyphenyl)-N-methyl-1H-imidazole-1-carboxamide] | 1.7 % of control | 2.1 % of control | 121.1 % of control
13 | CC1(C)COCN1C(=O)n1cnc(-c2cccc(O)c2)c1 [Compound 347, (4,4-dimethyloxazolidin-3-yl)(4-(3-hydroxyphenyl)-1H-imidazol-1-yl)methanone] | 109.6 % of control | 24.5 % of control | 76.6 % of control
14 | COc1cc(-c2cn(C(=O)N3COCC3(C)C)cn2)ccc1F [Compound 351, (4,4-dimethyloxazolidin-3-yl)(4-(4-fluoro-3-methoxyphenyl)-1H-imidazol-1-yl)methanone] | 95.6 % of control | 11.7 % of control | 7.1 % of control
15 | CN(C(=O)n1cnc(-c2ccc(O)c(N)c2)c1)C1CCCCC1.Cl [Compound no. 357, 4-(3-amino-4-hydroxyphenyl)-N-cyclohexyl-N-methyl-1H-imidazole-1-carboxamide hydrochloride] | 93.9 % of control | 10.4 % of control | 111.9 % of control
16 | CC1(C)COCN1C(=O)n1nnc2cc(Cl)ccc21 [Compound no. 359, (5-chloro-1-benzo[d][1,2,3]triazol-1-yl)(4,4-dimethyloxazolidin-3-yl)methanone] | 1.4 % of control | 1.7 % of control | 2.5 % of control
17 | CC1(C)COCN1C(=O)n1nnc2c(F)cc(F)cc21 [Compound no. 360, (4,6-difluoro-1H-benzo[d][1,2,3]triazol-1-yl)(4,4-dimethyloxazolidin-3-yl)methanone] | 1.6 % of control | 3.7 % of control | 3.1 % of control
18 | CC1(C)COCN1C(=O)n1nnc2ccc(-c3ccccc3)cc21 [Compound no. 361, (4,4-dimethyloxazolidin-3-yl)(6-phenyl-1H-benzo[d][1,2,3]triazol-1-yl)methanone] | 1.3 % of control | 1.4 % of control | 6.3 % of control
19 | CN(C(=O)n1cnc(-c2ccc[n+]([O-])c2)c1)C1CCCCC1 [Compound no. 362, 3-(1-(cyclohexyl(methyl)carbamoyl)-1H-imidazol-4-yl)pyridine 1-oxide] | 78.2 % of control | 1.7 % of control | 1.6 % of control
